{"source": "patent US20210309961A1", "about": "“METHOD OF THREE-DIMENSIONAL MICROORGANISMS BIOFILMS FABRICATION” (VIVAX BIO, LLC, priority 2020, published 2021)", "tested_on": "E. coli ATCC 43890", "test": "Survivability of E. coli ATCC 43890 in presence of gadobutrol (cfu count by plating decimal dilutions)", "format": "cell-based, Escherichia coli", "procedure": "A. (1) E. coli culture ATCC 43890 grown on LB broth during the night, (2) bacteria culture grown on LB broth and incubated with 0,2 M of gadobutrol in magnetic bioprinter for 24 hours, and (3) bacteria culture cultivated in paramagnetic substrate containing 0,2 M of gadobutrol in magnetic bioprinter for 24 hours; bacteria were sown in decimal dilution; diagram is showing concentrations calculated in three independent experiments.\nThe E. coli ATCC 43890 (cultured in different conditions) concentrations were estimated for analysis of survivability of bacteria in presence of gadobutrol. Primary culture has shown concentrations of 2.3×10^9, 2.1×10^9 and 1.9×10^8 cfu/ml for fresh night culture grown in LB broth during the night (1), for culture grown in LB broth during the night and then incubated with 0.2M gadobutrol in the bioprinter for next 24 hours (2), and culture grown under magnetic levitation in the paramagnetic nutrient medium (3) respectively (FIG. 4A). […] Moreover, the results have shown that the bacteria proliferated in the paramagnetic culture medium, that was observed due to the increase in concentration during cultivation: the initial bacteria (diluted in fresh paramagnetic medium) concentration was 2.3×10^7 cfu/ml ( 1/100 from the fresh night culture) and final concentration was 1.9×10^8 cfu/ml.", "data": [{"molecule": "O=C([O-])CN1CCN(CC(=O)[O-])CCN(C(CO)C(O)CO)CCN(CC(=O)[O-])CC1.[Gd+3]", "note": "(stereo not drawn) [gadobutrol, [10-[2,3-dihydroxy-1-(hydroxymethyl)propyl]-1,4,7,10-tetraazacyclododecane-1,4,7-triaceto(3-)-N^1,N^4,N^7,N^10,O^1,O^4,O^7]gadolinium]", "values": [{"measurement": "survivability of bacteria after incubation", "setting": "0.2M gadobutrol", "value": "bacteria saved their survivability"}, {"measurement": "bacteria concentration", "setting": "culture grown in LB broth during the night, then incubated with 0.2M gadobutrol in the bioprinter for next 24 hours", "value": "2.1×10^9 cfu/ml"}, {"measurement": "bacteria concentration", "setting": "culture grown under magnetic levitation in paramagnetic nutrient medium (0.2 M gadobutrol) for 24 hours, initial concentration 2.3×10^7 cfu/ml", "value": "1.9×10^8 cfu/ml"}]}]}
